Where two headings read alike, the source gives them in different places.

One assay concerns melanin A2E particles. Description: Assay for binding to A2E melanin particles. Also on record: species or system S. officinalis. The note with it: FIG. 3A; 37° C., 4 h. On the procedure: To study the binding of A2E to melanin, a suspension of 2 mg/ml natural melanin (S. officinalis) is prepared in PBS, pH 7.4. The melanin suspension is brought to 37° C. and sonicated for 15 min to form a uniform suspension. The melanin suspension (0.75 ml) is measured in aliquots into glass test tubes (12×75 mm) under continuous shaking to avoid sedimentation. The solution of A2E (0.75 ml) is added to the above-mentioned melanin aliquots, and the tubes will be incubated in a shaker incubator at 37° C. and 300 rpm for 4 h.
Controls are prepared by incubating A2E in the absence of melanin in incubation medium and by incubating melanin without A2E. Compounds are added to melanin suspension from stock solutions. After incubation, the suspensions are centrifuged at 13,000 rpm for 15 min at room temperature to remove the melanin granules. The supernatant is collected, diluted with acetonitrile and analyzed by an LC-MS/MS method to determine the concentration of […] in the supernatant. The kinetic parameters of binding study, i.e., maximal binding capacity (rmax) and the binding affinity (k) are determined for A2E according to the previously reported method (Cheruvu et al., 2008).
A high percentage of soraprazan and demethoxysoraprazan—about 46% and about 53%, respectively—are found bound to the melanin A2E particles.

A further assay concerns Abca4 (−/−) mice. Nature of the assay: A2E concentration in eyes of Abca4 (−/−) mice after intravitreal injection, HPLCMSMS
In kind it is in vivo. Conditions: for response vs control in vivo at 40000 µg/mL / response vs control in vivo at 20000 µg/mL: Mus musculus, 168 h, read-out: % of A2E relative to age matched untreated. An excerpt:
[…] […] The left eye was not treated and maintained as a control. Untreated eyes of age-matched mice lacking the Abca4 transporter were an additional control.
The concentration in each treated eye was then expressed as a percentage of the average concentration in all untreated eyes in the mice of the same age.
The left eye was not treated and maintained as a control. Untreated eyes of age-matched mice lacking the Abca4 transporter were an additional control.
The left eye was not treated and maintained as a control. Untreated eyes of age-matched mice lacking the Abca4 transporter were an additional control. […] Tryptophan is capable of absorbing and re-radiating light energy, as is riboflavin.
Water solutions were diluted 1:3 with acetonitrile and then sealed in vials for injection. 6 μL of the water acetonitrile solutions were injected onto a 2×50 mm Phenyl derived HPLC column (3 μm) and eluted with a gradient from 20% acetonitrile to 100% acetonitrile over 4 minutes at a flow rate of 500 μL/minute.

The test system of assay [1] is human retinal pigment epithelium (RPE) cells. Description: Degradation of lipofuscin in human RPE cells (micrographs after one week). In kind it is cell-based. The note with it: one week incubation. On the procedure:
To explore the role of the reactive chemical species the human retinal pigment epithelium (RPE) cells were treated with the super oxide anion donor (SAD) soraprazan ((7R,8R,9R)-2,3-Dimethyl-8-hydroxy-7-ethoxy-9-phenyl-7,8,9,10-tetrahydro-imidazo-[1,2-h][1,7]-naphthyridin)—a member of the THPE family—either alone or in combination with a known radical oxygen scavenger, cardioxane.
After growing the hRPE-cells to confluence, the test compounds were added to seven cell cultures and the cells were incubated at 37° C. and 5% CO2. The SAD was added to the cell cultures in a concentration of 50 μg/ml either alone or in combination with cardioxane in a concentration of 10 μM, 50 μM or 100 μM. Additionally, three cell cultures were incubated only with cardioxane in a concentration of 10 μM, 50 μM or 100 μM. As control, one cell culture was grown without test compounds.
After one week of incubation micrographs of the differently incubated RPE cells were taken as shown in FIG. 2A to H. In the original images, lipofuscin in cells is visible as a yellow-gold-orange fluorescent structure, before a blue background. In the grey scale reproduction in FIG. 2 the yellow-gold-orange structure appear light grey (yellow) or dark grey (gold-orange) before a grey background. Areas of degradation of lipofuscin in the hRPE cells appears as bright blue to whitish structures which appear white in the in the grey scale reproduction and are circled in FIG. 2A.
The bright blue structures are only observed in the experimental set up with SAD alone (FIG. 2A).

[2] abbreviates: dyes and porphyrins, intravitreal 2 μl of 20 mg/ml, one week after injection.
Setting [3] is: chelators or metal interactors, intravitreal 2 μl of 40 mg/ml or concentration as indicated, one week after injection.
The mark [4] stands for this setting: tetracycline antibiotics, intravitreal 2 μl of 20 mg/ml, one week after injection.
Setting [5] is: redox active small molecules and chelator, intravitreal 2 μl of 20 mg/ml, 16 hours after injection.
Where [6] appears, read: quinolones, intravitreal 2 μl of 20 mg/ml, one week after injection.
Where [7] appears, read: redox active and chelating protein, intravitreal 2 μl of 20 mg/ml, one week after injection.
[8] abbreviates: amino acids or metabolites, intravitreal 2 μl of 40 mg/ml, one week after injection.
Where [9] appears, read: permeability agents, intravitreal 2 μl of 40 mg/ml or concentration as indicated in the table, one week after injection.

As to R/S-demethoxysoraprazan, the “Proportion of compound bound to the melanin A2E particles after incubation” value in the assay with melanin A2E particles is on record as “bind to the A2E melanin particles although to a lower percentage”.

With `Cc1cc2nc3c(=O)[nH]c(=O)nc-3n(C[C@H](O)[C@H](O)[C@H](O)COP(=O)(O)OP(=O)(O)OC[C@H]3O[C@@H](n4cnc5c(N)ncnc54)[C@H](O)[C@@H]3O)c2cc1C` [FAD], in the assay on Abca4 (−/−) mice (setting [2]), the “% of A2E relative to age matched untreated” value stood at 99% and the “Concentration A2E (μM) in the treated eye” value (“Concentration A2E (μM)” for short) was determined as 23 µM.

In the case of `c1cnc2c(c1)ccc1cccnc12` [1,10-phenanthroline], in the assay on Abca4 (−/−) mice (setting [3]), the response vs control in vivo at 40000 µg/mL was determined as 91% and the “Concentration A2E (μM)” value was 20 µM.

Consider `O=C(N[C@H](CO)[C@H](O)c1ccc([N+](=O)[O-])cc1)C(Cl)Cl` [Chloramphenicol], for which, in the assay on Abca4 (−/−) mice (setting [4]), the response vs control in vivo at 20000 µg/mL came to 70% and the “Concentration A2E (μM)” value is 24 µM.

Turning to `c1ccc2c(c1)Nc1ccccc1S2` [Phenothiazine], the response vs control in vivo at 20000 µg/mL with Abca4 (−/−) mice came to 85%. Moreover, the “Concentration A2E (μM)” value in the assay on Abca4 (−/−) mice (setting [2]) worked out at 27 µM.

As for `C[C@@H]1CC[C@H]2[C@@H](C)C(=O)O[C@@H]3O[C@@]4(C)CC[C@@H]1[C@]32OO4` [Artemesinin], in the assay with Abca4 (−/−) mice (setting [5]), the “% of A2E relative to age matched untreated” value was found to be 75% and the “Concentration A2E (μM)” value was determined as 38 µM.

Regarding `C[C@H]1c2cccc(O)c2C(=O)C2=C(O)[C@]3(O)C(=O)C(C(N)=O)=C(O)[C@@H](N(C)C)[C@@H]3[C@@H](O)[C@@H]21` [Doxycycline], in the assay on Abca4 (−/−) mice (setting [4]), the response vs control in vivo at 20000 µg/mL came to 81% and the “Concentration A2E (μM)” value worked out at 28 µM.

As for `C=C[C@H]1C[N@@]2CC[C@H]1C[C@H]2[C@H](O)c1ccnc2ccc(OC)cc12` [Quinine], in the assay with Abca4 (−/−) mice (setting [2]), the response vs control in vivo at 20000 µg/mL amounted to 81% and the “Concentration A2E (μM)” value turned out to be 17 µM.

`CCn1cc(C(=O)O)c(=O)c2cc(F)c(N3CCNCC3)cc21` [Norfloxacin]: in the assay on Abca4 (−/−) mice (setting [6]), the response vs control in vivo at 20000 µg/mL worked out at 106% and the “Concentration A2E (μM)” value turned out to be 36 µM.

For “Transferrin (apo): protein capable of binding iron with high affinity”, in the assay with Abca4 (−/−) mice (setting [7]), the “% of A2E relative to age matched untreated” value turned out to be 82% and the “Concentration A2E (μM)” value was 15 µM.

Regarding demethoxysoraprazan, in the assay with melanin A2E particles, the “Proportion of compound bound to the melanin A2E particles after incubation” value is “about 53%”.

Take `O=C1/C(=C2\Nc3ccc(S(=O)(=O)[O-])cc3C2=O)Nc2ccc(S(=O)(=O)[O-])cc21.[Na+].[Na+]` [Indigocarmine]: in the assay with Abca4 (−/−) mice (setting [2]), the “% of A2E relative to age matched untreated” value was found to be 98% and the “Concentration A2E (μM)” value came to 22 µM.

For `Cc1cc2nc3c(=O)[nH]c(=O)nc-3n(C[C@H](O)[C@H](O)[C@H](O)CO)c2cc1C` [Riboflavin], in the assay with Abca4 (−/−) mice (setting [8]), the response vs control in vivo at 40000 µg/mL was 91% and the “Concentration A2E (μM)” value is 19 µM.

For `N[C@@H](CCC(=O)N[C@@H](CS)C(=O)NCC(=O)O)C(=O)O` [Glutathione], in the assay with Abca4 (−/−) mice (setting [8]), the response vs control in vivo at 40000 µg/mL amounted to 89% and the “Concentration A2E (μM)” value amounted to 35 µM.

On to `CN(C)c1ccc(C(=C2C=CC(=[N+](C)C)C=C2)c2ccc(N(C)C)cc2)cc1` [Crystal violet], for which, in the assay with Abca4 (−/−) mice (setting [2]), the response vs control in vivo at 20000 µg/mL was 71% and the “Concentration A2E (μM)” value was found to be 23 µM.

Consider `O=C([O-])c1c(Cl)c(Cl)c(Cl)c(Cl)c1-c1c2cc(I)c(=O)c(I)c-2oc2c(I)c([O-])c(I)cc12.[Na+].[Na+]` [Rose bengal], for which, in the assay with Abca4 (−/−) mice (setting [2]), the “% of A2E relative to age matched untreated” value came to 85% and the “Concentration A2E (μM)” value is 16 µM.

With `N[C@@H](Cc1c[nH]c2ccccc12)C(=O)O` [Tryptophan], in the assay on Abca4 (−/−) mice (setting [8]), the response vs control in vivo at 40000 µg/mL worked out at 66% and the “Concentration A2E (μM)” value worked out at 13 µM.

For the compound Cyclodextrin, in the assay on Abca4 (−/−) mice (setting [9]), the “% of A2E relative to age matched untreated” value worked out at 83% and the “Concentration A2E (μM)” value is 20 µM.

Turning to `O=C1OC2(c3ccc(O)cc3Oc3cc(O)ccc32)c2ccccc21` [Fluoroscein], in the assay with Abca4 (−/−) mice (setting [2]), the response vs control in vivo at 20000 µg/mL came out at 85% and the “Concentration A2E (μM)” value came to 20 µM.

In the case of `CC1(C)C(/C=C/C=C/C=C/C=C2\N(CCCCS(=O)(=O)O)c3ccc4ccccc4c3C2(C)C)=[N+](CCCCS(=O)(=O)[O-])c2ccc3ccccc3c21` [Indocyanine green], in the assay on Abca4 (−/−) mice (setting [2]), the response vs control in vivo at 20000 µg/mL was found to be 66% and the “Concentration A2E (μM)” value was 20 µM.

`C[C@@H](CN1CC(=O)NC(=O)C1)N1CC(=O)NC(=O)C1` [cardioxane]: the “Effect on the lipofuscin degradation seen with SAD” value in assay [1] (cardioxane 10, 50 or 100 μM added to SAD 50 μg/ml) is “abolishes the degradation of lipofuscin”. Besides, the “Degradation / removal of lipofuscin in hRPE cells” value in assay [1] (test compound alone (SAD 50 μg/ml; cardioxane 10, 50 or 100 μM)) is reported as “do not show any degradation of lipofuscin”.

Regarding `CN(C)c1ccc(O)c2c1C[C@H]1C[C@H]3[C@H](N(C)C)C(O)=C(C(N)=O)C(=O)[C@@]3(O)C(O)=C1C2=O` [Minocycline], in the assay on Abca4 (−/−) mice (setting [4]), the response vs control in vivo at 20000 µg/mL came out at 100% and the “Concentration A2E (μM)” value amounted to 33 µM.

`C[C@@H]1CN(c2c(F)c(N)c3c(=O)c(C(=O)O)cn(C4CC4)c3c2F)C[C@H](C)N1` [Sparfloxacin]: in the assay with Abca4 (−/−) mice (setting [6]), the response vs control in vivo at 20000 µg/mL was 99% and the “Concentration A2E (μM)” value stood at 36 µM.

On to `c1ccc2c(c1)-c1nc-2nc2[nH]c(nc3nc(nc4[nH]c(n1)c1ccccc41)-c1ccccc1-3)c1ccccc21` [Phthalocyanine], for which, in the assay with Abca4 (−/−) mice (setting [2]), the “% of A2E relative to age matched untreated” value is on record as 142% and the “Concentration A2E (μM)” value was found to be 31 µM.

As for `CN1CCN(c2c(F)cc3c(=O)c(C(=O)O)cn(CCF)c3c2F)CC1` [Fleroxacin], in the assay with Abca4 (−/−) mice (setting [6]), the response vs control in vivo at 20000 µg/mL is 74% and the “Concentration A2E (μM)” value came out at 24 µM.

Regarding “Cytochrome C: redox active electron carrier protein used as a model peroxidase”, in the assay on Abca4 (−/−) mice (setting [7]), the “% of A2E relative to age matched untreated” value is recorded as 81% and the “Concentration A2E (μM)” value worked out at 18 µM.

As to `N[C@@H](CS)C(=O)O` [Cysteine], in the assay with Abca4 (−/−) mice (setting [8]), the response vs control in vivo at 40000 µg/mL turned out to be 59% and the “Concentration A2E (μM)” value is 12 µM. Further, in the assay with Abca4 (−/−) mice (setting [3]), the “% of A2E relative to age matched untreated” value worked out at 59% and the “Concentration A2E (μM)” value came to 12 µM.

(Values after patent US10495630B2, “Methods for the determination of compounds or compositions for the treatment of lipofuscin related diseases and compounds or compositions” (KATAIRO GMBH, priority 2014, dated 2019).)
